Test [1] relates to JAK1. Description: IL-6 induced JAK1 phosphorylation in Hep3B. Format: cell-based. The conditions noted are these: 10 μMol/L CIMO, IL-6 10 ng/mL. As for the experimental part: (§1) FIG. 3 depicts comparative study of cell viability between STAT3-siRNA transfected and Compound 1 (CIMO) treated HepG2 cells [A]. Correspondingly, Western Blot analysis is used to assess the levels of phospho-STAT3 and STAT3 in HepG2 cells with siRNA-mediated depletion STAT3 expression and on exposure to 4 μM CIMO. Whole cell extract is prepared and resolved on SDS-PAGE gel, electrotransferred onto nitrocellulose membrane, and probed for phospho-STAT3 and the same blot is stripped and reprobed with STAT3 antibody and Beta actin to verify equal protein loading. [B] showcases the modulation of STAT3 mediated transcription, α2-M promoter activity by Compound 1 (CIMO) in HepG2 cells. [C] depicts the inhibition of IL-6-induced phosphorylation of STAT3, JAK1 and JAK2 by Compound 1 (CIMO). Hep3B cells (5×10^5/mL) are treated with 10 μMol/L CIMO for the indicated times and then stimulated with IL-6 (10 ng/mL) for about 15 minutes. Whole-cell extracts are then prepared, resolved on SDS-PAGE gel, electrotransferred onto nitrocellulose membrane and probed with phospho-STAT3, phospho-JAK1 and phospho-JAK2 antibodies. The same blot is stripped and reprobed with STAT3, JAK1 and JAK2 antibody to verify equal protein loading. [D] and [E], showcases the suppression of STAT3 regulated gene products involved in cell proliferation and survival by Compound 1 (CIMO). […]

The test system of test [2] is STAT3. Description: Immunocytochemistry of STAT3 nuclear translocation. Format: cell-based, human. Conditions: HepG2, 10 μMol/L, about 6 hours. How it is done:
HepG2 cells are plated in chamber slides in DMEM containing 10% FBS and allowed to adhere for about 24 hours. Following treatment with CIMO for about 6 hours, the cells are fixed with cold acetone for about 10 minutes, washed with PBS and blocked with 5% normal goat serum for about 1 hour. The cells are then incubated with rabbit polyclonal anti-human STAT3 Antibody (dilution, 1/100). After overnight incubation, the cells are washed and then incubated with goat anti-rabbit IgG-Alexa 594 ( 1/100) for about 1 hour and counterstained for nuclei with Hoechst (50 ng/ml) for about 5 minutes. Stained cells are mounted with mounting medium (Sigma-Aldrich) and analyzed under a fluorescence microscope (DP 70, Olympus, Tokyo, Japan).

The test system of test [3] is STAT3. Description: IL-6 induced STAT3 phosphorylation in Hep3B. Type of test: cell-based. The conditions noted are these: 10 μMol/L CIMO, IL-6 10 ng/mL. How it is done:
as §1

The test system of test [4] is HepG2 cells. The test is described as follows: Cell cycle distribution by PI flow cytometry (sub-G1). The conditions noted are these: HepG2, 10 μMol/L CIMO. Type of test: cell-based, human. As for the experimental part:
FIG. 1 depicts the accumulation of HepG2 cells in SubG1 phase caused by Compound 1 (CIMO). HepG2 cells (5×10^5/mL) are treated with 10 μMol/L CIMO for indicated time points, after which the cells are washed, fixed, stained with PI, and analyzed for DNA content by flow cytometry.
In late apoptosis, activation of endonucleases leads to fragmentation of genomic DNA into oligomers thereby contributing to a decrease in DNA content, which in turn leads to the buildup of cells in Sub-G1 phase. In order to evaluate the effect of Compound 1 on cell cycle distribution of HepG2 cells, flow cytometric analysis is performed. HepG2 cells are treated with CIMO at different time intervals up to 48 hours. Thereafter, cells are washed, fixed with 70% ethanol, and incubated for about 30 minutes about at 37° C. with 0.1% RNaseA in PBS. Cells are then washed again, resuspended, and stained in PBS containing 25 μg/ml propidium iodide (PI) for about 30 minutes at room temperature. Cell distribution across the cell cycle after PI staining is analyzed with a Beckman Coulter flow cytometer.
(In general: A flow cytometer gives signals particle by particle.)

With `COc1ccc(C2CNC(c3cn(Cc4ccc(-c5ccccc5C#N)cc4)c4ccccc34)OC23CCCCC3)cc1` (stereo not shown) [Compound 1], the “IL-6 induced phosphorylation of JAK1” value in test [1] is “substantially down-regulates”. Further, the “STAT3 in the nucleus” value in test [2] is “significant decrease”. In test [3], the “IL-6 induced phosphorylation of STAT3” value was “substantially down-regulates”. The sub-G1 cell population was 18.8% in test [4] (16 hours), 38.7% in test [4] (24 hours), 71% in test [4] (36 hours) and 92.1% in test [4] (48 hours).
